Test results published in US4356183A, “Antihypertensive 4-thiazolidinecarboxylic acids (pyridyl derivatives)” (Santen Pharmaceutical Co., Ltd., priority 1978, dated 1982).
Where two headings read alike, the source gives them in different places.

Experiments:
[1] = tested on: contractile response to bradykinin (isolated guinea pig ileum); assay: Augmentation of contractile response of isolated guinea pig ileum to bradykinin; assay type: cell-based; conditions: Cavia porcellus, bradykinin 0.005 μg/ml; compound added 5 min before; 30° C.; read-out: Bradykinin AC50 (50% augmentation of bradykinin activity inducing the contraction of guinea pig ileum)
Experimental: (§1) Isolated guinea pig ileum was suspended in the organ bath containing 20 ml of Tyrode's solution of 30° C. gassed with 95% O2 +5% CO2. The contraction induced by the addition of angiotensin I (0.1 μg/ml) at intervals of 10 minutes was recorded on a recticorder (Nihon Koden) for 90 seconds using FD pick up (ST-1T-H, Nihon Koden).
(§2) The test compounds were added to the bath 5 minutes before the addition of angiotensin I.
From the fact that kininase II, which destroys bradykinin having contractive action on isolated guinea pig ileum, is thought to be identical with angiotensin I-converting enzyme, augmentation of the contractile response to bradykinin by test compounds was examined by using bradykinin (0.005 μg/ml) in place of angiotensin I according to the above mentioned method.

[2] = target: T1, angiotensin I-converting enzyme (Oryctolagus cuniculus, UniProt P12822); assay: Inhibition of angiotensin I-converting enzyme by spectrophotometry (HHL substrate); assay type: biochemical; conditions: enzyme from rabbit lung; 5 mM HHL; pH 8.3; 37° C., 30 min
T1 construct: angiotensin I-converting enzyme extracted from rabbit lung; from tissue; host or cells: rabbit lung
T1 sequence (P12822 34-1310): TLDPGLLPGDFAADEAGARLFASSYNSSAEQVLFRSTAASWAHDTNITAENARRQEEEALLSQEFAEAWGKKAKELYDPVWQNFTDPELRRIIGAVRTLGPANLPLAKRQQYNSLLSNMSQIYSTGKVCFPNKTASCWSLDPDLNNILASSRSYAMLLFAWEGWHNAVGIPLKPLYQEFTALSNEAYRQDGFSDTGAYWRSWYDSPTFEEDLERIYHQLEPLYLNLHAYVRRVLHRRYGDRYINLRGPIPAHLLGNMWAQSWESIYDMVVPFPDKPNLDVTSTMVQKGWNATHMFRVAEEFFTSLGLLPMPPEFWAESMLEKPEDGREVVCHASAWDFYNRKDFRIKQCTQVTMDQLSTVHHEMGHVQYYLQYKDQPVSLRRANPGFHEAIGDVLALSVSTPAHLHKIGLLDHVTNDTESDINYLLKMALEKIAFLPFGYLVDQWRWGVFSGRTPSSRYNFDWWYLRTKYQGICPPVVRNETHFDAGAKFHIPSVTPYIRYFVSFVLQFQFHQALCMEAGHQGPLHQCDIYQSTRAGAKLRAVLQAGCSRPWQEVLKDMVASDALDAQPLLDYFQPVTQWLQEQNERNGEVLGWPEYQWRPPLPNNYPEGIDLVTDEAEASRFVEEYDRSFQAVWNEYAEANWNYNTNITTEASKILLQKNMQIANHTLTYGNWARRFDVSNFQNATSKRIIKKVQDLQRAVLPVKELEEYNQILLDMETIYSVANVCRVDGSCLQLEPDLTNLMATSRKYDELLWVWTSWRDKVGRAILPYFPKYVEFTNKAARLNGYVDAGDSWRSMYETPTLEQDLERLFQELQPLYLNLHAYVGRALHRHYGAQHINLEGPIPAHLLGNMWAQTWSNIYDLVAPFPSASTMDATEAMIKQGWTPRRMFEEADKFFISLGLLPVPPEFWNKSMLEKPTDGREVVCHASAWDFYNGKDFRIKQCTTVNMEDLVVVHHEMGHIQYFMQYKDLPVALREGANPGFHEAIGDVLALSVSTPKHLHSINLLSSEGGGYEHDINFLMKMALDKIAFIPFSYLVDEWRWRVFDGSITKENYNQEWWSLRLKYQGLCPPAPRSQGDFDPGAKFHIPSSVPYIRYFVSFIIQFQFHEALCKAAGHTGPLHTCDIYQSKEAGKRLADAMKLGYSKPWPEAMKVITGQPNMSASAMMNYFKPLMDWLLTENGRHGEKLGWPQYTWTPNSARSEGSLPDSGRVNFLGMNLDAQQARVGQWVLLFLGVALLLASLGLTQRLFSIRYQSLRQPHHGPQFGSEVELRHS
Experimental: That is, the absorbance of hippuric acid was measured, which is liberated by incubating hippuryl-L-histidyl-L-leucine (HHL) as substrate in the presence of angiotensin I-converting enzyme extracted from rabbit lung.
(§3) Measurement of inhibitory activity of angiotensin I-converting enzyme
The reaction mixture is as follows:
100 mM phosphate buffer (pH 8.3)
10^-3 ~10^-9 M enzyme inhibitor
0.25 ml of the above mixture was incubated at 37° C. for 30 minutes and the reaction was stopped by adding 0.25 ml of 1 N hydrochloric acid. To this solution, 1.5 ml of ethyl acetate was added in order to extract hippuric acid. 1.0 ml of ethyl acetate layer was collected and evaporated to dryness, and the residue obtained was dissolved in 1.0 ml of water.
The inhibitory activity of angiotensin I-converting enzyme was calculated by the following formula: [formula]

Acute toxicity test = conditions: rat, in vivo
Experimental: The male ddy-SLC strain […] (4 weeks of age, weighing 19-21 g) were placed in a breeding room of constant temperature and humidity (23°±1° C., 55±5%) and fed freely pellet diet (CE-2, Clea Japan Inc.) and water ad. libitum for a week. The rats showing the normal growth were selected for the experiment.
Test compounds are suspended in 0.5% tragacanth solution (p.o.) or dissolved in distilled water (i.v., i.p.), and administered in a dose of 0.5 ml/20 g body weight.

[3] = tested on: contractile response of isolated guinea pig ileum to angiotensin I; assay: Inhibition of contractile response of isolated guinea pig ileum to angiotensin I; assay type: cell-based; conditions: Cavia porcellus, angiotensin I 0.1 μg/ml; compound added 5 min before; 30° C.; read-out: Angiotensin I IC50 (50% inhibition of angiotensin I activity inducing the contraction of guinea pig ileum)
Description: As the method of measurement of angiotensin I-converting enzyme activity, bioassay for the contractile response of isolated smooth muscle or the pressor response of normal animals and biochemical assay for the enzyme isolated from lung or other organs of animals are known. The former is found more advantageous than the latter for the examination of the convertion of angiotensin I to angiotensin II in vivo.
In the present study, therefore, we adopted the bioassay for contractile response of isolated guinea pig ileum to angiotensin I.
as §3, §1, §2
The inhibitory activity of angiotensin I-converting enzyme was calculated by the following formula. [formula] A: contractile intensity of angiotensin I before addition of the compound B: contractile intensity of angiotensin I after addition of the compound

[4] = tested on: pressor response to angiotensin I; assay: Inhibition of pressor response to angiotensin I in rats after oral administration; assay type: in vivo, rat (male Wistar); conditions: angiotensin I 300 ng/kg i.v.
Experimental: Male Wistar strain rats weighing about 200-300 g were used.
Under ether anesthesia, polyethylene cannulae are inserted into carotid arthery and jugular vein. The cannula to carotid artery is connected to an electric transducer, while the cannula to jugular vein is connected to an apparatus for continuous infusion. After the complete recovery from anesthesia, angiotensin I is infused intravenously in a dose of 300 ng/kg by the apparatus for continuous infusion, and the pressor response is recorded by polygraph (Nihon Koden, RM-150).
The compounds of this invention suspended in 0.5% tragacanth solution are administered orally in a dose of 0.3 ml per 100 g of body weight, and the pressor response to angiotensin I infused intravenously is measured with time.
The inhibitory activity of the compounds against angiotensin I-converting enzyme is expressed as the percent inhibition of pressor response to angiotensin I.

Structure (SMILES)	AC50 [1] [µM]	IC50 [2] [µM]	LD50 (Acute toxicity test; ip, dissolved in distilled water, pH 7, read-out: LD i.p.) [mg/kg]	IC50 [3] [µM]	Inhibition (%) of pressor response to angiotensin I, 5 min ([4]; 5 min, dose: 3, 45, 49 1.8 mg/kg, 4, 46 1.3, 50 1.4, 76 2.0, 77 1.5) [%]	Inhibition (%) of pressor response to angiotensin I, 15 min ([4]; 15 min, dose: 3, 45, 49 1.8 mg/kg, 4, 46 1.3, 50 1.4, 76 2.0, 77 1.5) [%]	Inhibition (%) of pressor response to angiotensin I, 25 min ([4]; 25 min, dose: 3, 45, 49 1.8 mg/kg, 4, 46 1.3, 50 1.4, 76 2.0, 77 1.5) [%]	Inhibition (%) of pressor response to angiotensin I, 35 min ([4]; 35 min, dose: 3, 45, 49 1.8 mg/kg, 4, 46 1.3, 50 1.4, 76 2.0, 77 1.5) [%]	Inhibition (%) of pressor response to angiotensin I, 45 min ([4]; 45 min, dose: 3, 45, 49 1.8 mg/kg, 4, 46 1.3, 50 1.4, 76 2.0, 77 1.5) [%]	Inhibition (%) of pressor response to angiotensin I, 55 min ([4]; 55 min, dose: 3, 45, 49 1.8 mg/kg, 4, 46 1.3, 50 1.4, 76 2.0, 77 1.5) [%]	Inhibition (%) of pressor response to angiotensin I, 65 min ([4]; 65 min, dose: 3, 45, 49 1.8 mg/kg, 4, 46 1.3, 50 1.4, 76 2.0, 77 1.5) [%]	Inhibition (%) of pressor response to angiotensin I, 75 min ([4]; 75 min, dose: 3, 45, 49 1.8 mg/kg, 4, 46 1.3, 50 1.4, 76 2.0, 77 1.5) [%]	Inhibition (%) of pressor response to angiotensin I, 85 min ([4]; 85 min, dose: 3, 45, 49 1.8 mg/kg, 4, 46 1.3, 50 1.4, 76 2.0, 77 1.5) [%]	Inhibition (%) of pressor response to angiotensin I, 95 min ([4]; 95 min, dose: 45, 49 1.8 mg/kg, 4, 46 1.3, 50 1.4, 76 2.0, 77 1.5) [%]	Inhibition (%) of pressor response to angiotensin I, 105 min ([4]; 105 min, dose: 45, 49 1.8 mg/kg, 46 1.3, 50 1.4, 76 2.0, 77 1.5) [%]	Inhibition (%) of pressor response to angiotensin I, 115 min ([4]; 115 min, dose: 45, 49 1.8 mg/kg, 46 1.3, 50 1.4, 76 2.0, 77 1.5) [%]	LD50 (Acute toxicity test; po, suspended in 0.5% tragacanth solution, read-out: LD50 p.o.) [mg/kg]
C[C@H](CS)C(=O)N1C(c2ccccc2)SC[C@H]1C(=O)O (stereo partly shown) [Compound 18]	0.0031	0.06	> 1000	0.19													
O=C(O)[C@@H]1CSC(c2ccccc2O)N1C(=O)CCS (stereo partly drawn) [Compound 46, (4R)-2-(2-Hydroxyphenyl)-3-(3-mercaptopropanoyl)-4-thiazolidinecarboxylic acid]	0.0003			0.019	53.3	62.9	64.7	63.7	54.0	49.3	47.7	38.8	34.0	30.0	30.0	31.0	> 10000
